Literature values in patent US5910307A, “Process of extracting and purifying biologically effective ingredients from combined medicinal plants and their extract composition” (priority 1996, dated 1999).

Assays:
[1] = test system: chronic rheumatoid arthritis induced by Mycobacterium butyricum; conditions: literature
[2] = test system: biosynthesis of prostacyclin; conditions: literature

SMILES	anti-inflammatory and analgesic effects [1]	effect on chronic rheumatoid arthritis induced by Mycobacterium butyricum [1]	biosynthesis of prostacyclin generated in the metabolism of arachidonic acid [2]
CC1(C)CC[C@]2(C(=O)O)CC[C@]3(C)C(=CC[C@@H]4[C@@]5(C)CC[C@H](O)C(C)(C)[C@@H]5CC[C@]43C)[C@@H]2C1 [oleanolic acid]	remarkable anti-inflammatory and analgesic effects	effective	–
O=C(/C=C/c1ccc(O)c(O)c1)O[C@H](Cc1ccc(O)c(O)c1)C(=O)O [rosmarinic acid]	–	–	inhibit
